Values of other authors in US20160001001A1 (priority 2013, published 2016).

Conditions: in vivo

In the case of CN1CC[C@]23c4c5ccc(O)c4O[C@H]2[C@@H](O)C=C[C@H]3[C@H]1C5 [Morphine], the Onset time is listed as 8 min and the “Time elapsing until the maximum analgesic effect is reached” value is listed as 25 min.
